In brackets after ≈: the same amount, converted by molar mass. Like-named read-outs stand apart in the source and are kept apart here.
Legend:
[1] = test system: leukemia cells and experimental cancer cells artificially generated by carcinogen virus and the like; conditions: cited from earlier work
[2] = test system: spontaneously generated human solid cancer cells; conditions: cited from earlier work
incubated cancer cells = conditions: cited from earlier work
BxPC-3 cell = conditions: 3 μg/ml adriamycin, from start of treatment; cited from earlier work
AsPC-1 cell = conditions: 30 μg/ml adriamycin; cited from earlier work
AsPC-1 cells [3] = assay: Apoptosis-inducing activity on human pancreatic cancer cell AsPC-1 (Trypan Blue); type: cell-based; conditions: for IC50: Homo sapiens, read-out: IC50 (concentration at which cell death by apoptosis is induced at 50% of total AsPC-1 cells); for time after drug treatment in which apoptosis was induced on AsPC-1 cells: after the drug treatment
Description: A cell suspension containing the AsPC-1 cells suspended in an RPMI 1640 culture medium containing 10% FBS was prepared, and 500 μl-portion each of the cell suspension was placed in a 24-well plastic plate in a proportion of 1×10^5 cells/well. The cell suspension was incubated at 37° C. under 5% CO2 for 1 day. The AsPC-1 cells adhered onto the bottom surface of each well. Subsequently, polyoxypeptin or deoxypolyoxypeptin was added to the liquid culture medium present in each well so as to give the substance under test at a concentration of 3, 100 or 300 μg/ml. The cells were incubated for 24 hours.
Immediately after the incubation for 24 hours, the supernatant liquid (500 μl) of the culture medium remaining in each well was removed from each well of said plastic plate and discarded. Then, the plastic plate was washed twice with a PBS buffer solution (each 300 μl), and the washings were discharged. Thereafter, a trypsin-EDTA buffer solution (200 μl) was added to said plastic plate, and the incubation was effected at 37° C. under CO2 -free condition so as to peel the cells off from the plate. The cells so peeled were transferred to an Eppendorf tube. The Eppendorf tube was centrifuged (2400 rpm, 10 minutes) to deposit the cells down, and the super-natant was removed and discarded. A fresh amount of the liquid culture medium was added to the cells. An 80 μl-portion of the resulting cell suspension as formed in said tube was taken into another Eppendorf tube, to which were then added 20 μl of Trypan Blue staining solution (containing 4 mg/ml of Trypan Blue and 9 mg/ml of NaCl). The cell suspension was taken out from the resulting mixture by a pipette, and the cell suspension so pipetted was placed on a hemocytometer (made by Elma Co.). The cell sample was observed under a microscope of 100 magnifications. The number of the dead cells as blue-colored amongst the cells under observation, and the total number of whole cells under observation were counted.
The survival rate (%) of the cells was calculated by an equation of 100-[(number of dead cells.div. total number of tested cells)×100].

AsPC-1 cells [4] = assay: Activity inhibitory to the proliferation of human pancreatic cancer cell AsPC-1 (MTT assay); type: cell-based; conditions: ASPC1, 48 h, read-out: IC50 (concentration at which proliferation of AsPC-1 cells was inhibited by 50%)
Description: A cell suspension of AsPC-1 cells suspended in an RPMI 1640 culture medium containing 10% FBS was prepared, and 100 μl-portion each of said cell suspension was placed in a 96-well plastic plate in a proportion of 3×10^3 cells/well. Each plate was then incubated at 37° C. under a 5% CO2 for 1 day. Subsequently, polyoxypeptin or deoxypolyoxypeptin was added to the liquid culture medium present in each well at a concentration of 1, 3, 10, 30 or 100 ng/ml of said compound. Then the incubation of the cells was effected for 2 days. Then, the number of cells was counted by MTT assay method.

[5] = test system: Human T cell leukemia Jurkat; assay: Cytocidal activity, Trypan Blue; type: cell-based; conditions: read-out: IC50 (concentration required to kill 50% of cells)
Description: (§1) Various cancer cells as shown in Table 1 below were incubated for 24 hours on such culture medium as shown in the table which contained polyoxypeptin or deoxypolyoxypeptin added at various concentrations. After staining with Trypan Blue, the number.of the dead cells was counted, and the concentration of polyoxypeptin or deoxypolyoxypeptin required to kill 50% of the total number of cells of the cancer cells under test, namely the value of IC50, was calculated therefrom.

[6] = test system: Human bibrosarcoma HT1080; assay: Cytocidal activity, Trypan Blue; type: cell-based; conditions: read-out: IC50 (concentration required to kill 50% of cells)
Description: as §1

[7] = test system: Human chronic promyeloleukemia K562; assay: Cytocidal activity, Trypan Blue; type: cell-based; conditions: read-out: IC50 (concentration required to kill 50% of cells)
Description: as §1

Human epithelioma A431 = assay: Cytocidal activity, Trypan Blue; type: cell-based; conditions: read-out: IC50 (concentration required to kill 50% of cells)
Description: as §1

[8] = test system: Human pancreatic adenocarcinoma cells AsPC-1; assay: Cytocidal activity, Trypan Blue; type: cell-based; conditions: read-out: IC50 (concentration required to kill 50% of cells)
Description: as §1

[9] = test system: Human pancreatic adenocarcinoma cells BxPC-3; assay: Cytocidal activity, Trypan Blue; type: cell-based; conditions: read-out: IC50 (concentration required to kill 50% of cells)
Description: as §1

[10] = test system: Human pancreatic adenocarcinoma cells PSN-1; assay: Cytocidal activity, Trypan Blue; type: cell-based; conditions: read-out: IC50 (concentration required to kill 50% of cells)
Description: as §1

[11] = test system: Human pancreatic adenocarcinoma cells Panc-1; assay: Cytocidal activity, Trypan Blue; type: cell-based; conditions: read-out: IC50 (concentration required to kill 50% of cells)
Description: as §1

[12] = test system: Human promyeloleukemia HL-60; assay: Cytocidal activity, Trypan Blue; type: cell-based; conditions: read-out: IC50 (concentration required to kill 50% of cells)
Description: as §1

[13] = test system: Human uterus body cancer HHUA; assay: Cytocidal activity, Trypan Blue; type: cell-based; conditions: read-out: IC50 (concentration required to kill 50% of cells)
Description: as §1

[14] = test system: Mouse fibroblast cell A4 (cerbB2-NIH3T3); assay: Cytocidal activity, Trypan Blue; type: cell-based; conditions: read-out: IC50 (concentration required to kill 50% of cells)
Description: as §1

[15] = test system: Mouse fibroblast cell K-ras-NIH3T3; assay: Cytocidal activity, Trypan Blue; type: cell-based; conditions: read-out: IC50 (concentration required to kill 50% of cells)
Description: as §1

[16] = test system: Mouse fibroblast cell NIH3T3; assay: Cytocidal activity, Trypan Blue; type: cell-based; conditions: read-out: IC50 (concentration required to kill 50% of cells)
Description: as §1

[17] = test system: Mouse fibroblast cell RSV-NIH3T3 (src-transformed NIH3T3); assay: Cytocidal activity, Trypan Blue; type: cell-based; conditions: read-out: IC50 (concentration required to kill 50% of cells)
Description: as §1

[18] = test system: Rat fibroblast cell K-ras-NRK; assay: Cytocidal activity, Trypan Blue; type: cell-based; conditions: read-out: IC50 (concentration required to kill 50% of cells)
Description: as §1

Rat fibroblast cell NRK = assay: Cytocidal activity, Trypan Blue; type: cell-based; conditions: read-out: IC50 (concentration required to kill 50% of cells)
Description: as §1

Escherichia coli = assay: Antibacterial activity, serial dilution on Muller-Hinton agar; type: cell-based; conditions: gram-negative bacteria such as Escherichia coli
Description: Antibacterial spectra of polyoxypeptin and deoxypoly-oxypeptin against various microorganisms were determined on Muller-Hinton agar medium by a serial dilution method on the basis of the standard method of Japan Society of Chemotherapy.

mice = assay: Acute toxicity in mice, single intravenous injection; type: in vivo, mouse; conditions: administered once by intravenous injection
[19] = test system: other human solid cancer cells; assay: Apoptosis induction on other human solid cancer cells; type: cell-based
Solubility = conditions: for Solubility in organic solvents: methanol, ethanol, aqueous ethanol, chloroform, ethyl acetate, acetone, (n-)butanol, acetonitrile, toluene, dimethylsulfoxide

In the case of N.N.[Cl][Pt][Cl] [cisplatin], the “apoptosis induction on leukemia cells and experimental cancer cells” value [1] is given as “can have an activity of inducing the apoptosis”, the “apoptosis induction on many spontaneously generated human solid cancer cells” value [2] is given as “does not induce apoptosis” and the “apoptosis induction on some of incubated cancer cells” value (incubated cancer cells) is given as “have the activities of inducing the apoptosis”.

In the case of COc1cccc2c1C(=O)c1c(O)c3c(c(O)c1C2=O)C[C@@](O)(C(=O)CO)C[C@@H]3O[C@H]1C[C@H](N)[C@H](O)[C@H](C)O1 [adriamycin], the “time within which apoptosis is induced on BxPC-3 cell” value (BxPC-3 cell) is given as ≤ 24 h, the “apoptosis induction on AsPC-1 cell” value (AsPC-1 cell) is given as “does not induce apoptosis” and the “apoptosis induction on leukemia cells and experimental cancer cells” value [1] is given as “can have an activity of inducing the apoptosis”. For the same compound, the “apoptosis induction on many spontaneously generated human solid cancer cells” value [2] was “does not induce apoptosis” and the “apoptosis induction on some of incubated cancer cells” value (incubated cancer cells) was “have the activities of inducing the apoptosis”.

For CCC(C)CC1CCC(O)(C(C)(O)C(=O)NC2C(=O)N3NCCCC3C(=O)N(O)C(C)C(=O)N3NCC(O)CC3C(=O)N3CCC(C)(O)C3C(=O)N(O)C(C(C)C)C(=O)OC2C(C)C)OC1CC (centres unmarked) [polyoxypeptin], the IC50 (AsPC-1 cells [3]; ASPC1, 24 h) was 0.08 mg/L (≈ 0.0825 µM), the “time after drug treatment in which apoptosis was induced on AsPC-1 cells” value (AsPC-1 cells [3]) was “approximately 24 hours” and the IC50 (AsPC-1 cells [4]) was 0.015 mg/L (≈ 0.0155 µM). It also gave an IC50 ([5]; 24 h) of 0.05 mg/L (≈ 0.0516 µM), an IC50 ([6]; HT-1080, 24 h) of 0.02 mg/L (≈ 0.0206 µM) and an IC50 ([7]; K562, 24 h) of 0.02 mg/L (≈ 0.0206 µM). It also gave an IC50 (Human epithelioma A431; A-431, 24 h) of 0.03 mg/L (≈ 0.031 µM), an IC50 ([8]; ASPC1, 24 h) of 0.08 mg/L (≈ 0.0825 µM) and an IC50 ([9]; BXPC-3, 24 h) of 0.03 mg/L (≈ 0.031 µM). For the same compound, the IC50 ([10]; PSN1, 24 h) was 0.01 mg/L (≈ 0.0103 µM), the IC50 ([11]; PANC-1, 24 h) was 0.05 mg/L (≈ 0.0516 µM) and the IC50 ([12]; HL-60, 24 h) was 0.04 mg/L (≈ 0.0413 µM). It also gave an IC50 ([13]; 24 h) of 0.05 mg/L (≈ 0.0516 µM), an IC50 ([14]; 24 h) of 0.06 mg/L (≈ 0.0619 µM) and an IC50 ([15]; 24 h) of 0.1 mg/L (≈ 0.103 µM). It also gave an IC50 ([16]; NIH3T3, 24 h) of 0.05 mg/L (≈ 0.0516 µM), an IC50 ([17]; NIH3T3, 24 h) of 0.06 mg/L (≈ 0.0619 µM) and an IC50 ([18]; 24 h) of 0.05 mg/L (≈ 0.0516 µM). The IC50 (Rat fibroblast cell NRK; 24 h) was 0.18 mg/L (≈ 0.186 µM), the “antibacterial activity against gram-negative bacteria” value (Escherichia coli) was “did not exhibit any antibacterial activity” and the LD50 (mice) was 67.5 μg/mouse. For the same compound, the “apoptosis-inducing activity on other human solid cancer cells” value [19] was “have also an activity of inducing apoptosis”, the “Solubility in organic solvents” value (Solubility) was “Soluble” and the Solubility in water (Solubility) was “hardly soluble”.

In the case of CCC(C)CC1CCC(O)(C(C)(O)C(=O)NC2C(=O)N3NCCCC3C(=O)N(O)C(C)C(=O)N3NCCCC3C(=O)N3CCC(C)(O)C3C(=O)N(O)C(C(C)C)C(=O)OC2C(C)C)OC1CC (centres unmarked) [deoxypolyoxypeptin], the IC50 (AsPC-1 cells [3]; ASPC1, 24 hours incubation, RPMI 1640 with 10% FBS) is reported as 0.08 mg/L (≈ 0.0839 µM), the “time after drug treatment in which apoptosis was induced on AsPC-1 cells” value (AsPC-1 cells [3]) is reported as “approximately 24 hours” and the IC50 (AsPC-1 cells [4]; 2 days incubation, MTT, RPMI 1640 with 10% FBS) is reported as 0.015 mg/L (≈ 0.0157 µM). It also gave an IC50 ([5]; 24 hours, medium B) of 0.05 mg/L (≈ 0.0525 µM), an IC50 ([6]; HT-1080, HT1080, 24 hours, medium D) of 0.02 mg/L (≈ 0.021 µM) and an IC50 ([7]; K562, 24 hours, medium A) of 0.02 mg/L (≈ 0.021 µM). For the same compound, the IC50 (Human epithelioma A431; A-431, A431, 24 hours, medium C) was 0.03 mg/L (≈ 0.0315 µM), the IC50 ([8]; ASPC1, AsPC-1, 24 hours, medium A) was 0.08 mg/L (≈ 0.0839 µM) and the IC50 ([9]; BxPC-3, 24 hours, medium A) was 0.03 mg/L (≈ 0.0315 µM). For the same compound, the IC50 ([10]; PSN1, PSN-1, 24 hours, medium A) was 0.01 mg/L (≈ 0.0105 µM), the IC50 ([11]; Panc-1, 24 hours, medium A) was 0.05 mg/L (≈ 0.0525 µM) and the IC50 ([12]; HL-60, 24 hours, medium A) was 0.04 mg/L (≈ 0.042 µM). The IC50 ([13]; HHUA, 24 hours, medium D) was 0.05 mg/L (≈ 0.0525 µM), the IC50 ([14]; A4 (cerbB2-NIH3T3), 24 hours, medium A) was 0.06 mg/L (≈ 0.0629 µM) and the IC50 ([15]; K-ras-NIH3T3, 24 hours, medium A) was 0.1 mg/L (≈ 0.105 µM). The IC50 ([16]; NIH3T3, 24 hours, medium A) was 0.05 mg/L (≈ 0.0525 µM), the IC50 ([17]; RSV-NIH3T3 (src-transformed NIH3T3), 24 hours, medium A) was 0.06 mg/L (≈ 0.0629 µM) and the IC50 ([18]; K-ras-NRK, 24 hours, medium C) was 0.05 mg/L (≈ 0.0525 µM). For the same compound, the IC50 (Rat fibroblast cell NRK; NRK, 24 hours, medium C) was 0.18 mg/L (≈ 0.189 µM), the “antibacterial activity against gram-negative bacteria” value (Escherichia coli) was “did not exhibit any antibacterial activity” and the LD50 (mice) was 125 μg/mouse. The “apoptosis-inducing activity on other human solid cancer cells” value [19] was “have also an activity of inducing apoptosis”, the “Solubility in organic solvents” value (Solubility) was “Soluble” and the Solubility in water (Solubility) was “hardly soluble”.
